According to ChEMBL document CHEMBL1201862, “PubChem BioAssay data set” (2004):
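A five-concentration, 48-hour dose response in 96-well plates underlies each endpoint, interpolated linearly between surrounding concentrations. Here, GI50 denotes the concentration required for 50% inhibition of growth.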 The source made the active and inactive calls. Rule as the data show it: active = GI50 up to about 1.1 µM and inactive = higher.

Experiments:
Experiment in all cases: NCI tumour cell line growth inhibition, 48 h
BT-549 = tested on: BT-549
HOP-92 = tested on: HOP-92
Hs-578T = tested on: Hs-578T
M14 = tested on: M14
MDA-MB-231 = tested on: MDA-MB-231
Malme-3M = tested on: Malme-3M
NCI-H460 = tested on: NCI-H460
NCI-H522 = tested on: NCI-H522
OVCAR-3 = tested on: OVCAR-3
OVCAR-8 = tested on: OVCAR-8
RXF 393 = tested on: RXF 393
SK-MEL-5 = tested on: SK-MEL-5
SK-OV-3 = tested on: SK-OV-3
SN12C = tested on: SN12C
SR = tested on: SR
T47D = tested on: T47D
TK-10 = tested on: TK-10
U-251 = tested on: U-251
UO-31 = tested on: UO-31

Structure (SMILES) | GI50 (BT-549) | GI50 (HOP-92) | GI50 (Hs-578T) | GI50 (M14) | GI50 (MDA-MB-231) | GI50 (Malme-3M) | GI50 (NCI-H460) | GI50 (NCI-H522) | GI50 (OVCAR-3) | GI50 (OVCAR-8) | GI50 (RXF 393) | GI50 (SK-MEL-5) | GI50 (SK-OV-3) | GI50 (SN12C) | GI50 (SR) | GI50 (T47D) | GI50 (TK-10) | GI50 (U-251) | GI50 (UO-31)
C[C@@H]1[C@@H](C)C(c2ccccc2)O[Si]1(C(C)(C)C)C(C)(C)C (stereo partly specified) | 24.4 µM (inactive) | 21.5 µM (inactive) | 20.9 µM (inactive) | 18.2 µM (inactive) | 16.9 µM (inactive) | 9.71 µM (inactive) | 17.4 µM (inactive) | 15.1 µM (inactive) | 16.5 µM (inactive) | 17.8 µM (inactive) | 17.1 µM (inactive) | 17.4 µM (inactive) | 26.5 µM (inactive) | 17.4 µM (inactive) | 11.8 µM (inactive) | 19.1 µM (inactive) | 16.4 µM (inactive) | 17 µM (inactive) | 17.2 µM (inactive)
O=P(O)(O)CN1CCNCCN(CP(=O)(O)O)CCN(CP(=O)(O)O)CCNCC1 | > 100 µM (inactive) | > 100 µM (inactive) | > 100 µM (inactive) | > 100 µM (inactive) | > 100 µM (inactive) | 0.296 µM (active) | 42400 µM (inactive) | > 100 µM (inactive) | > 100 µM (inactive) | 83400 µM (inactive) | > 100000 µM (inactive) | 77300 µM (inactive) | > 100 µM (inactive) | > 100 µM (inactive) | > 100 µM (inactive) | 48300 µM (inactive) | > 100 µM (inactive) | > 100 µM (inactive) | > 100 µM (inactive)
O=[N+]([O-])c1cccc(-c2cn3c(n2)Cc2ccccc2C3)c1 | > 100 µM (inactive) | > 100 µM (inactive) | 85.3 µM (inactive) | 42.4 µM (inactive) | 18.8 µM (inactive) | > 100 µM (inactive) | 85.7 µM (inactive) | 34.4 µM (inactive) | – | 99.1 µM (inactive) | > 100 µM (inactive) | 28.6 µM (inactive) | > 100 µM (inactive) | > 100 µM (inactive) | 51.4 µM (inactive) | 17.1 µM (inactive) | > 100 µM (inactive) | 39.7 µM (inactive) | 51.2 µM (inactive)
Cc1cc(S(=O)(=O)Nc2nc(-c3ccccn3)n[nH]2)c(S)cc1Cl | 17.9 µM (inactive) | 19 µM (inactive) | 28.8 µM (inactive) | 15.2 µM (inactive) | 29.2 µM (inactive) | 18.1 µM (inactive) | 10.6 µM (inactive) | 27.4 µM (inactive) | 17.2 µM (inactive) | 11 µM (inactive) | 17.4 µM (inactive) | 8.55 µM (inactive) | 12.9 µM (inactive) | 36.2 µM (inactive) | 24.3 µM (inactive) | 15.3 µM (inactive) | 10 µM (inactive) | 13.3 µM (inactive) | 2.67 µM (inactive)
CCC(=O)/C=C/c1ccccc1 | 32.7 µM (inactive) | > 100 µM (inactive) | 21.8 µM (inactive) | 52.8 µM (inactive) | > 100 µM (inactive) | > 100 µM (inactive) | 70.3 µM (inactive) | > 100 µM (inactive) | 67.6 µM (inactive) | 51.3 µM (inactive) | 73.3 µM (inactive) | 33 µM (inactive) | 31.3 µM (inactive) | 43.2 µM (inactive) | 42.8 µM (inactive) | > 100 µM (inactive) | > 100 µM (inactive) | 37.9 µM (inactive) | 76.6 µM (inactive)
CSc1nc(SC)c2c(C)cn(COCCOC(=O)c3ccccc3)c2n1 | > 100 µM (inactive) | 41.5 µM (inactive) | 54.1 µM (inactive) | > 100 µM (inactive) | > 100 µM (inactive) | > 100 µM (inactive) | 88.5 µM (inactive) | > 100 µM (inactive) | > 100 µM (inactive) | > 100 µM (inactive) | 82.6 µM (inactive) | > 100 µM (inactive) | 24.3 µM (inactive) | > 100 µM (inactive) | > 100 µM (inactive) | 32.8 µM (inactive) | > 100 µM (inactive) | > 100 µM (inactive) | 44.3 µM (inactive)
COc1ccc(C2N(c3ccc(F)cc3)C(=O)N3C(c4ccc(OC)cc4)N(c4ccc(F)cc4)C(=O)N23)cc1 (stereo unspecified) | > 100 µM (inactive) | > 100 µM (inactive) | > 100 µM (inactive) | > 100 µM (inactive) | > 100 µM (inactive) | > 100 µM (inactive) | > 100 µM (inactive) | > 100 µM (inactive) | > 100 µM (inactive) | > 100 µM (inactive) | > 100 µM (inactive) | > 100 µM (inactive) | – | > 100 µM (inactive) | 34 µM (inactive) | > 100 µM (inactive) | > 100 µM (inactive) | > 100 µM (inactive) | > 100 µM (inactive)
